Source: US12295973B2 (Fred Hutchinson Cancer Center, priority 2017, dated 2025)
Where a SMILES comes first, the peptide text is derived from it. [ ]: non-standard residue; d: D form. The star is where a group is joined. dPhe(4-NHCONH2) = NC(=O)Nc1ccc(C[C@@H](N)C(=O)O)cc1; Dihydroorotyl(S) = O=C1C[C@@H](C(=O)*)NC(=O)N1; dPhe(4-Cl) = N[C@H](Cc1ccc(Cl)cc1)C(=O)O; Phe(4-NH2) = Nc1ccc(C[C@H](N)C(=O)O)cc1; d2Nal = N[C@H](Cc1ccc2ccccc2c1)C(=O)O; Lys(iPr) = CC(C)NCCCC[C@H](N)C(=O)O; d3Pal = N[C@H](Cc1cccnc1)C(=O)O

Tested on: hematopoietic stem and progenitor cell (HSPC) compartment
Assay: Bone marrow analysis of the HSPC compartment after L-TBI (cellularity, flow cytometry)
Assay type: in vivo, mouse
Experimental: To investigate the specific regenerative effects mediated by LHRH-Ant treatment on the hematopoietic stem and progenitor cell (HSPC) compartment, BM were analyzed at several time points after L-TBI. […] To determine hematopoietic functional potential, colony-forming unit activity was next quantified to determine the effects of LHRH-Ant on the recovery of committed hematopoietic progenitor cells. […] Consistent with these functional findings, on day 14 after L-TBI, expansion of LSKs as well as their downstream progenitors in mice given LHRH-Ant were found (FIGS. 2F, 2G). […] However, given the changes in HSC phenotype after radiation, the standard competitive repopulation functional assay was adapted to evaluate the presence and relative quantity of functional HSCs after L-TBI. Specifically, all cells from the BM and spleen (to account for potential changes to circulating HSCs) were collected and transplanted from vehicle or LHRH-Ant treated mice at day 14 after L-TBI into irradiated hosts (along with a rescue dose of congenic WBM cells to ensure survival). This approach allowed detection of differences in the total number of residual HSCs which would be reflected by a functional difference in hematopoietic reconstitution.
Flow cytometry and cell cycle analysis: Monoclonal antibodies recognizing the following markers were used for flow cytometric analyses and cell sorting of murine cells (LSR II or FACSAria III, BD Biosciences): (from BD Pharmingen) c-kit (2B8), Sca-1 (D7), CD11b (M1/70), CD11c (HL3), CD19 (ID3), CD3ϵ (145-2C11), CD34 (RAM34), CD45 (30-F11), CD45.1 (A20), CD45.2 (104), CD48 (HM48-1), CD62L (MEL-14), CD135 (A2F10.1), Gr-1 (RB6-8C5), NK1.1 (PK136), TER-119 (TER-119); (from eBioscience) CD127 (A7R34), CD150 (mShad150); (from Invitrogen) B220 (RA3-6B2) and streptavidin (N/A). The mouse lineage antibody cocktail included anti-CD3, anti-CD4, anti-CD8α, anti-CD19, anti-CD11 b, anti-CD11c, anti-Gr-1, anti-NK1.1, and anti-TER119. The following antibodies were used for flow cytometry analyses of human samples, CD49f (eBioGoH3), CD45RA (L48), CD34 (581), CD38 (HIT2). CD90 (5E10), CD10 (H110a). The human lineage antibody cocktail included anti-CD3, anti-CD14, anti-CD16, anti-CD19, anti-CD20, anti-CD56. To detect human LHCGR a polyclonal anti-LHCGR (Alomone, cat #:ALR-010) was used. For intracellular Ki67/DAPI staining, BM cells were stained with surface markers, fixed, and permeabilized using the Fixation/Permeabilization kit (cat. 00552100 ebioscience) and permeabilization buffer (cat. 008333 ebioscience). Cells were then incubated with Ki67-Alexa 700 (B56) (from BD Biosciences) for 45 minutes at 4C. After centrifugation DAPI (5 μg/ml) was added to cells and allowed to incubate for at least 30 min at RT before analysis. […]

For CC(=O)N[C@H](Cc1ccc2ccccc2c1)C(=O)N[C@H](Cc1ccc(Cl)cc1)C(=O)N[C@H](Cc1cccnc1)C(=O)N[C@@H](CO)C(=O)N[C@@H](Cc1ccc(NC(=O)[C@@H]2CC(=O)NC(=O)N2)cc1)C(=O)N[C@H](Cc1ccc(NC(N)=O)cc1)C(=O)N[C@@H](CC(C)C)C(=O)N[C@@H](CCCCNC(C)C)C(=O)N1CCC[C@H]1C(=O)N[C@H](C)C(N)=O [LHRH-Ant, Degarelix] (Ac-[d2Nal][dPhe(4-Cl)][d3Pal]S[Phe(4-NH2)](Dihydroorotyl(S))[dPhe(4-NHCONH2)]L[Lys(iPr)]P[dA]-NH2), the “total BM cellularity” value (day 7 after L-TBI, vs vehicle) was “no difference”, the “LSKs and their downstream progenitors” value (day 14 after L-TBI) was “expansion” and the LT-HSCs number (day 14 after L-TBI) was “significantly more LT-HSCs”. For the same compound, the BM cellularity (day 14 after radiation, vs vehicle) was “started to separate significantly from the vehicle group by day 14”.
